Earlier results, collected in patent publication US20230295183A1, “HOT MELT EXTRUDED SOLID DISPERSIONS CONTAINING A BCL2 INHIBITOR” (Newave Pharmaceutical Inc., priority 2020, published 2023).

Tests used:
[1] = in vivo
established tumors = settings: mouse, in vivo
Mcl-1 = Mcl-1 (Homo sapiens, UniProt Q07820)
CLL = settings: read-out: average EC50, apoptosis in CLL
RS4;11 xenografts = settings: single dose of 100 mg/kg
Bcl-w = molecular target: T1, Bcl-w (Homo sapiens, UniProt Q92843)
T1 sequence (Q92843 1-193): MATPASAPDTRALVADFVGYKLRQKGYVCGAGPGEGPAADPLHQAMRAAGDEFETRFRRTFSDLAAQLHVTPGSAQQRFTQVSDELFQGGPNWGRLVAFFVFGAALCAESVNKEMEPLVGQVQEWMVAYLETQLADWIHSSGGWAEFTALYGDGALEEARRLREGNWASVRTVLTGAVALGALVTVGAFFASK

SCLC H146 cell line = settings: read-out: IC50 against SCLC H146 cell line
H345 xenograft = settings: 100 mg/kg/day, H345 xenograft model
[2] = system: xenograft models of small-cell lung cancer and acute lymphoblastic leukemia; settings: oral administration, alone
circulating platelets = settings: clinical trial; dose-limiting thrombocytopenia

Sequence of Mcl-1 (Q07820 whole entry): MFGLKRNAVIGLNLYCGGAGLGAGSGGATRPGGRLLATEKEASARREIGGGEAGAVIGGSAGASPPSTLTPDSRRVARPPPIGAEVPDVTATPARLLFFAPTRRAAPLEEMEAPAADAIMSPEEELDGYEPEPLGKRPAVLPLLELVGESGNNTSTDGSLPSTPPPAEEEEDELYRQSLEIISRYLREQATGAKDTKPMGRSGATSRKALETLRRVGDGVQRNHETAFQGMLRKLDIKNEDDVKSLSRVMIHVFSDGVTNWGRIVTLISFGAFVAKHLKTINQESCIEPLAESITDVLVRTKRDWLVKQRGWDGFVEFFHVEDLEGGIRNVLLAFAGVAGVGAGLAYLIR

oral bioavailability [1]	aqueous solubility	activity to Mcl-1 (Mcl-1)	EC50 (RS4;11 cells)	EC50 (CLL)	Ki (Bcl-w)	IC50 (SCLC H146 cell line)	Structure (SMILES)	antitumor effect in animal models (established tumors)	maximal tumor growth inhibition (RS4;11 xenografts)	tumor growth delay (RS4;11 xenografts)	TGI (H345 xenograft)	treated tumors indicating at least a 50% reduction in tumor volume (H345 xenograft)	antitumor effect in xenograft models [2]	effect on number of circulating platelets (circulating platelets)
not orally bioavailable	low aqueous solubility						CN(C)CC[C@H](CSc1ccccc1)Nc1ccc(S(=O)(=O)NC(=O)c2ccc(N3CCN(Cc4ccccc4-c4ccc(Cl)cc4)CC3)cc2)cc1[N+](=O)[O-] [ABT-737]	causes regression of established tumors						
		no activity	8 nM	3 nM			CC1(C)CCC(CN2CCN(c3ccc(C(=O)NS(=O)(=O)c4ccc(NCC5CCOCC5)c([N+](=O)[O-])c4)c(Oc4cnc5[nH]ccc5c4)c3)CC2)=C(c2ccc(Cl)cc2)C1 [ABT-199]		95%	152%				
orally bioavailable					≤ 1 nM	110 nM	CC1(C)CCC(c2ccc(Cl)cc2)=C(CN2CCN(c3ccc(C(=O)NS(=O)(=O)c4ccc(N[C@H](CCN5CCOCC5)CSc5ccccc5)c(S(=O)(=O)C(F)(F)F)c4)cc3)CC2)C1 [ABT-263]				80%	20%	complete tumor regressions	rapid, concentration-dependent decrease in the number of circulating platelets
